Data: ChEMBL document CHEMBL2203274, “Desmethyl Macrolides: Synthesis and Evaluation of 4,8-Didesmethyl Telithromycin” (2012)

Columns and labels:
Assay type in all cases: functional
[1] = system: Escherichia coli; assay: Antibacterial activity against wild type Escherichia coli DK/pKK3535 in presence of DMSO
[2] = system: Staphylococcus aureus; assay: Antibacterial activity against Staphylococcus aureus UCN14 harboring ribosomal A2058T mutant in presence of DMSO
[3] = system: Staphylococcus aureus; assay: Antibacterial activity against Staphylococcus aureus ATCC 33591 harboring ermA mutant in presence of DMSO
[4] = system: Escherichia coli; assay: Antibacterial activity against Escherichia coli SQ171/2058G harboring 23S rRNA A2058G mutant in presence of DMSO
[5] = system: Escherichia coli; assay: Antibacterial activity against Escherichia coli DK/2058G harboring 23S rRNA A2058G mutant in presence of DMSO
[6] = system: Escherichia coli; assay: Antibacterial activity against wild type Escherichia coli DK/pKK3535 in presence of ethanol
[7] = system: Staphylococcus aureus; assay: Antibacterial activity against Staphylococcus aureus UCN14 harboring ribosomal A2058T mutant in presence of ethanol
[8] = system: Escherichia coli; assay: Antibacterial activity against Escherichia coli SQ171/2058G harboring 23S rRNA A2058G mutant in presence of ethanol
[9] = system: Escherichia coli; assay: Antibacterial activity against Escherichia coli DK/2058G harboring 23S rRNA A2058G mutant in presence of ethanol
[10] = system: Staphylococcus aureus; assay: Antibacterial activity against Staphylococcus aureus ATCC 33591 harboring ermA mutant in presence of ethanol

Structure (SMILES) | MIC [1] | MIC [2] | MIC [3] | MIC [4] | MIC [5] | MIC [6] | MIC [7] | MIC [8] | MIC [9] | MIC [10]
CC[C@H]1OC(=O)[C@H](C)C(=O)C[C@@H](O[C@@H]2O[C@H](C)C[C@H](N(C)C)[C@H]2O)[C@](C)(OC)C[C@@H](C)C(=O)C[C@H]2N(CCCCn3cnc(-c4cccnc4)c3)C(=O)O[C@]12C | 8 µg/mL | > 256 µg/mL | > 128 µg/mL | > 512 µg/mL | 16 µg/mL |  |  |  |  | 
CC[C@H]1OC(=O)[C@H](C)C(=O)C[C@@H](O[C@@H]2O[C@H](C)C[C@H](N(C)C)[C@H]2O)[C@](C)(OC)CCC(=O)[C@H](C)[C@H]2N(CCCCn3cnc(-c4cccnc4)c3)C(=O)O[C@]12C | 4 µg/mL | > 256 µg/mL | > 64 µg/mL | > 512 µg/mL | 32 µg/mL |  |  |  |  | 
CC[C@H]1OC(=O)[C@H](C)C(=O)C[C@@H](O[C@@H]2O[C@H](C)C[C@H](N(C)C)[C@H]2O)[C@@](C)(OC)CCC(=O)C[C@H]2[C@@H]1OC(=O)N2CCCCn1cnc(-c2cccnc2)c1 [4,8,10-TRIDESMETHYL TELITHROMYCIN] |  |  |  |  |  | 32 µg/mL | 32 µg/mL | > 512 µg/mL | 64 µg/mL | > 128 µg/mL
CC[C@H]1OC(=O)[C@H](C)C(=O)[C@H](C)[C@@H](O[C@@H]2O[C@H](C)C[C@H](N(C)C)[C@H]2O)[C@](C)(OC)C[C@@H](C)C(=O)[C@H](C)[C@H]2N(CCCCn3cnc(-c4cccnc4)c3)C(=O)O[C@]12C [TELITHROMYCIN] | 0.5 µg/mL | > 128 µg/mL | > 128 µg/mL | > 512 µg/mL | 1 µg/mL | 0.5 µg/mL | > 256 µg/mL | > 512 µg/mL | 1 µg/mL | > 128 µg/mL
